Laboratory results from patent US10207002B2, “Sustained release formulation and tablets prepared therefrom” (Merck Sharp & Dohme Corp., priority 2015, dated 2019).

Key:
[1] = Solubility in a basic environment, such as the intestine; type: physicochemical
[2] = Bioavailability on co-administration with a proton-pump inhibitor; type: in vivo; details: co-administered with a proton-pump inhibitor

## COCCOc1ccc(N2CCN(CCn3ncc4c3nc(N)n3nc(-c5ccco5)nc43)CC2)cc1 [Formula IA, preladenant]
[1]
  Solubility: poorly soluble
[2]
  Bioavailability: sharp drop in bioavailability

## CC#Cc1nc2c3cnn(CCN4CCN(c5cc6c(C)noc6cc5F)CC4)c3nc(N)n2n1 [Formula IB]
[1]
  Solubility: poorly soluble
